# Source: patent US6989270B1, “Using polyamide nucleic acid oligomers to engender a biological response” (Mayo Foundation for Medical Education and Research, priority 1997, dated 2006)
# Assays:
# [1] = Gel shift assay measuring PNA oligomer in tissue; assay type: in vivo
# Method: To confirm the presence and measure the amount of PNA in brain after extracranial administration, a sensitive gel shift assay was developed. This assay involves using a radioactively-labeled oligonucleotide having sequence specificity for a PNA oligomer as a probe to detect that PNA oligomer. Briefly, a sample is prepared and incubated with a probe. If the sample contains a PNA oligomer having sequence specificity for the probe, then the probe can bind that PNA oligomer. This bound form of the probe then can be detected and quantified using gel electrophoresis since a probe bound to a PNA oligomer migrates differently than an unbound probe on a gel.
# Brain extracts were prepared from either untreated animals or animals treated intraperitoneally with 10 mg/kg of the AS-NTR1-PNA oligomer. For the treated animals, brain tissue was collected 8 hours post treatment. To prepare brain extracts, flash frozen brain tissue (minus the PAG and hypothalamus) were homogenized in 1 mM Tris (pH 4.0), 0.1 mM EDTA at a concentration of 1.5 ml/g wet weight of tissue. This acidic condition can protonate cytosine bases as well as the N-terminal amino group of the PNA oligomer, which presumably increases the solubility of the PNA oligomer and allows the PNA oligomer to be found in an aqueous phase during the later extraction step. Samples were boiled for five minutes. This boiling step can free the bound PNA oligomer from its target sequence, and inactivate nucleases that may interfere with the integrity of the DNA oligonucleotide probe. Then, the samples were spun two to three times at 35,600×g for 10 minutes each to pellet insoluble material and the supernatants collected. Supernatants were extracted with 10 volumes of CHCl3:MeOH (2:1 v/v) to remove glycolipids that may interfere with gel electrophoresis, and spun briefly at 1,000×g to separate phases. For the standard curves using known amounts of a PNA oligomer, the PNA oligomer was added to the supernatant before the CHCl3:MeOH extraction. The supernatants were collected in a fresh tube, lyophilized, and resuspended in 30 to 40 μl of water.
# Once prepared, approximately 400 pg of probe was added to each 30 to 40 μl sample. To prepare the probe, a DNA oligonucleotide (Gibco BRL, Gaithersburg, Md.) complementary to the AS-NTR1-PNA oligomer was end-labeled using T4 Polynucleotide Kinase (Gibco BRL) and [Gamma-^32P]ATP or [Gamma-^33P]ATP (New England Nuclear, Boston, Mass.) according to manufacturer's instructions. […]
# After adding the probe, the samples were incubated at room temperature for 20 minutes. […] Signal was detected using a Storm860 Phosphoimager (Molecular Dynamics, Sunnyvale, Calif.) and data were analyzed using ImageQuant Software (Molecular Dynamics, Sunnyvale, Calif.). […]
# NTR1 mRNA = assay: Quantitative RT-PCR of NTR1 mRNA relative to GAPDH; assay type: in vivo; conditions: treated intracranially, 5 μg
# Method: Messenger RNA (mRNA) levels for NTR1, MU1R, and GAPDH were measured in control and PNA-treated animals. Briefly, total RNA was isolated from approximately 20 mg of tissue using the S.N.A.P. total RNA Isolation Kit (Invitrogen, Carlsbad, Calif.). Quantitative RT-PCR was performed on treated and control animals using GAPDH as an internal standard and PCR fragments of the human NTR and of a GAPDH deletion mutant as exogenous standards. First strand cDNA was synthesized from approximately 500 ng of total RNA using the cDNA Cycle Kit (Invitrogen, Carlsbad, Calif.). PCR was performed on a GeneAmp PCR System 9600 (Perkin Elmer, Norwalk, Conn.) using end-labeled primer and TAq DNA Polymerase (Gibco-BRL, Gaithersburg, Md.). Products were separated on a 5% acrylamide gel containing 7 M urea, and detected using a Storm860 Phosphoimager (Molecular Dynamics, Sunnyvale, Calif.). Data were analyzed using ImageQuant Software (Molecular Dynamics, Sunnyvale Calif.). To control for any diurnal mRNA level fluctuations that may occur, the PNA injection time was controlled such that the tissue harvest time was identical in each animal group.
# [2] = system: NTR1 cDNA synthesis from total brain RNA; assay: In vitro reverse transcription assay; assay type: biochemical, rat; conditions: 1 μg total brain RNA incubated with 600 ng PNA
# Method: An in vitro reverse transcription assay was performed-as follows. Total RNA was isolated from 20 mg of tissue using the RNeasy Kit (Qiagen, Chatsworth, Calif.). After isolation, total RNA (lug) was incubated with the PNA oligomers (600 ng) at 40° C. for 40 minutes. Exogenous cRNA standards were added, and cDNA was synthesized using the cDNA Cycle Kit and gene-specific primers for NTR1 and GAPDH (Invitrogen, Carlsbad, Calif.). The exogenous cRNA standards were synthesized from dsDNA templates using the Megashort-Script Kit (Ambion, Austin, Tex.). The dsDNA templates for exogenous cRNA standards for the NTR1- and GAPDH-specific cDNA reactions were constructed using the PCR MIMIC Construction Kit (Clontech) and composite primers. […] After using the cDNA Cycle Kit, quantitative PCR was performed on each sample. […] Products were detected using a Storm860 Phosphoimager (Molecular Dynamics, Sunnyvale, Calif.) and data were analyzed using Image Quant Software (Molecular Dynamics, Sunnyvale, Calif.).
# Using this in vitro reverse transcription assay, 1 μg of total RNA isolated from the brain of an untreated rat was incubated with 600 ng of the AS-NTR1-PNA or mismatch-AS-NTR1PNA oligomer and NTR1 cDNA production assessed. […]
substance,measurement,setting,value
"NTR1-PNA: 12-mer antisense PNA oligomer to rat NTR1 coding region, 5′-CATTGCTCAAAC-3′ (SEQ ID NO: 1) (all peptide nucleic acid (PNA))",integrity of PNA oligomer recovered from brain (gel mobility shift),[1]; 8 hours after i.p. 10 mg/kg,unaltered
same,presence of PNA oligomer in brain extracts,"[1]; 8 hours after i.p. 10 mg/kg, perfused and non-perfused animals",detected in brain extracts prepared from treated animals
same,concentration of PNA oligomer within brain,"[1]; 8 hours after intraperitoneal 10 mg/kg, corrected for recovery",2.4±0.3 ng/whole brain
same,"presence of PNA oligomer in brain, heart, kidney, liver, spleen and blood","[1]; tissues 2 hours after i.p. 10 mg/kg (perfused), blood 5 minutes after i.v. 10 mg/kg",detected in each tissue
same,change in NTR1/GAPDH ratio of mRNA over time,NTR1 mRNA,no significant change
same,reduction in NTR1 cDNA synthesis,[2],65%
